Results: patent publication US8329674B2, “Film forming dental compositions and related methods” (3M Innovative Properties Company, priority 2007, dated 2012)
Converted amounts (≈) assume the structure as drawn. Counter-ions that a name gives are not always drawn.

Experiments:
Format in all cases: cell-based
[1] = test system: Streptococcus mutans culture (ATCC 25175); assay: Qualitative Biofilm Inhibition Test; design: key: +: refers to a visual assessment that a compound inhibited biofilm formation; −: refers to a visual assessment that either a compound did not inhibit biofilm formation, or that bacteria grew in the culture broth; settings: 1 weight percent compound; visible biofilm on disc after incubation and rinse
Description: During the procedure for the Quantitative Biofilm Inhibition Test, each cured disc was visually examined after it was removed from the broth (and rinsed with water) and before it was placed in a test tube containing five milliliters of 1M aqueous sodium hydroxide solution. The presence or absence of visible biofilm on a disc was noted. The Quantitative Biofilm Inhibition Test was carried out using five compounds of the dental composition and eleven comparative compounds, each at a concentration of 1 weight percent. […] In addition, the Qualitative Biofilm Inhibition Test was carried out for each Example and Comparative Example, in which each disc was visually examined before it was placed in the tube containing the aqueous sodium hydroxide solution.

[2] = test system: Streptococcus mutans culture (ATCC 25175); assay: Quantitative Biofilm Inhibition Test; settings: Streptococcus mutans, ATCC25175, 20 h, 1 weight percent compound; broth with 1.0 weight percent sucrose; approx. twenty hours at 37° C.; average OD at 550 nm as percentage of control (100%); read-out: OD Ratio
Description: Compounds of the dental compositions of the invention, and comparative compounds, were evaluated for biofilm inhibition activity. Composite dental restorative (available under the trade designation “FILTEK SUPREME” from 3M ESPE Dental Products, St. Paul, Minn.) was placed in a 15 millimeter by 1 millimeter stainless steel die. […] While the die containing the composite restorative was under compression, the composite was irradiated for two minutes using a Model ACE light source (available from SCHOTT North America, Inc., Auburn, N.Y.). The discs of cured composite restorative were then further cured using a Model UniXS light box (available from Heraeus Kulzer, Inc., Armonk, N.Y.) for 1.5 minutes.
The samples were incubated at 37° C. for approximately twenty hours, after which time the cured discs were removed from the broth and were gently rinsed with water. Each disc was placed in a separate test tube containing five milliliters of 1M aqueous sodium hydroxide solution, and each test tube was then sonicated for two minutes using a model SH1012-40-8 ultrasonic generator (manufactured by Branson Ultrasonics Corp., Danbury, Conn.) for two minutes to dislodge biofilm on the disc. The optical absorbance (optical density) of each aqueous sodium hydroxide solution was then measured at 550 nm using a Model ULTROSPEC III UV-visible spectrophotometer (manufactured by Pharmacia AB, Uppsala, Sweden). For each compound of the dental composition, five discs were separately incubated in broth and were evaluated separately to provide five optical density measurements. The average of the five optical density measurements was then calculated. […] The average optical density of the control or comparative samples was determined as described above. […] The ratio was considered to be proportional to the average amount of biofilm on the five cured discs, i.e., relatively low average optical density ratio was considered to be indicative of inhibition of biofilm formation. The ratio for the control was 100%.
The Quantitative Biofilm Inhibition Test was carried out using five compounds of the dental composition and eleven comparative compounds, each at a concentration of 1 weight percent. […] In addition, the Qualitative Biofilm Inhibition Test was carried out for each Example and Comparative Example, in which each disc was visually examined before it was placed in the tube containing the aqueous sodium hydroxide solution.

Streptococcus mutans = assay: Bacterial Kill Rate Test
Description: Compounds of the dental compositions of the invention were evaluated for extent of bacterial kill in culture. Overnight cultures of Streptococcus mutans in brain heart infusion broth (10^6 CFU/mL) was mixed with a 0.1 weight percent, 0.5 weight percent, or 1.0 weight percent aqueous solution of each compound of the dental composition. After a period of 2, 5, or 10 minutes, 1.0 mL of the mixture was transferred via pipette into a first tube containing 9.0 mL of Letheen broth to provide a 10^−1 dilution. The contents of the tube were mixed using a vortex mixer. A 1.0 mL aliquot of this sample was transferred via pipette into a second tube containing 9.0 mL of Letheen broth to provide a 10^−2 dilution. A 0.1 mL aliquot of each dilution was plated and spread in duplicate on sheep blood agar in Petri dishes, using a “hockey stick” applicator, to provide 10^−2 and 10^−3 dilutions, respectively, on each plate. The plates were incubated at 37° C. for a period of 48 to 72 hours, and then the colony forming units were counted. The CFU counts were compared and the log reduction in the counts were calculated. In Table 3, the bacteria count reduction (log reduction) is the difference between the log of the initial bacteria count and the log of the bacteria count after 2, 5, and 10 minutes.

[3] = test system: Streptococcus mutans culture (ATCC 25175); assay: Biofilm Inhibition Test: concentration of compound to inhibit biofilm formation at varied sucrose; settings: tested at 50 or 150 millimolar
Description: Compounds of the dental compositions of the invention, and comparative compounds, were evaluated for biofilm inhibition activity. Composite dental restorative (available under the trade designation “FILTEK SUPREME” from 3M ESPE Dental Products, St. Paul, Minn.) was placed in a 15 millimeter by 1 millimeter stainless steel die. The open ends of the die were then covered with polyester film and the die was subjected to a pressure of 68.95 MPa using a hydraulic press. While the die containing the composite restorative was under compression, the composite was irradiated for two minutes using a Model ACE light source (available from SCHOTT North America, Inc., Auburn, N.Y.). The discs of cured composite restorative were then further cured using a Model UniXS light box (available from Heraeus Kulzer, Inc., Armonk, N.Y.) for 1.5 minutes.
The cured discs of composite restorative were then immersed in ten milliliters of Streptococcus mutans culture (ATCC 25175; 10^6 CFU/mL) prepared in brain heart infusion broth that contained 1.0 weight percent sucrose and 1 weight percent of a compound of the dental composition. The samples were incubated at 37° C. for approximately twenty hours, after which time the cured discs were removed from the broth and were gently rinsed with water. Each disc was placed in a separate test tube containing five milliliters of 1M aqueous sodium hydroxide solution, and each test tube was then sonicated for two minutes using a model SH1012-40-8 ultrasonic generator (manufactured by Branson Ultrasonics Corp., Danbury, Conn.) for two minutes to dislodge biofilm on the disc. The optical absorbance (optical density) of each aqueous sodium hydroxide solution was then measured at 550 nm using a Model ULTROSPEC III UV-visible spectrophotometer (manufactured by Pharmacia AB, Uppsala, Sweden). For each compound of the dental composition, five discs were separately incubated in broth and were evaluated separately to provide five optical density measurements. The average of the five optical density measurements was then calculated. […] The average optical density of the control or comparative samples was determined as described above. The ratio, expressed as a percentage, of the average optical density for each compound sample to the average optical density for a control sample was calculated by dividing the average optical density for each compound sample by the average optical density for a control sample and multiplying the result by one hundred. The ratio was considered to be proportional to the average amount of biofilm on the five cured discs, i.e., relatively low average optical density ratio was considered to be indicative of inhibition of biofilm formation. The ratio for the control was 100%.
During the procedure for the Quantitative Biofilm Inhibition Test, each cured disc was visually examined after it was removed from the broth (and rinsed with water) and before it was placed in a test tube containing five milliliters of 1M aqueous sodium hydroxide solution. The presence or absence of visible biofilm on a disc was noted.
The Biofilm Inhibition Test was carried out, using four compounds of the dental composition, in broth containing 1.0, 2.5, or 5.0 weight percent sucrose and the exemplary compounds of the dental composition at a concentration of either 50 millimolar or 150 millimolar. In Table 2, the millimolar concentration of compound that inhibited biofilm formation is given for each concentration of sucrose. An entry of “n/t” means that the compound was not tested in broth containing the corresponding concentration of sucrose.

[4] = test system: Streptococcus mutans (strain ATCC 25175); assay: Minimum Inhibitory Concentration (MIC) Test; settings: ATCC25175, S. mutans, compound emulsified in water with PLURONIC F68, 24 hours at 37° C., none = no inhibitory activity noted
Description: (§1) The MIC Test was carried out using successively lower concentrations of compounds. Sterile tryptic soy broth (50 microliters; TSB, available from BD Dfico, Becton, Dickinson and Company, Franklin Lakes, N.J.) was deposited into each well of a sterile polystyrene 96-well microtitcr plate. Into each well in the first (leftmost) column of the plate, there was then deposited a 50 microliter aliquot (of known concentration) of a compound (i.e., a compound of Formula I, or a pharmaceutically acceptable salt thereof, or comparative compound). A 50 microliter aliquot of the mixture in the first (leftmost) well in the first row of the plate was transferred to the second well in the first row. A 50 microliter aliquot of the mixture in the second well in the first row was then transferred to the third well in the first row. The compound was successively diluted (1:1 dilution at each step) by transferring a 50 microliter aliquot from one well into the next well, across the row of the plate. This procedure was repeated for each row of the plate. Then, an overnight culture of Streptococcus mutans (strain ATCC 25175) was diluted 1:100 into sterile tryptic soy broth. A 50 microliter aliquot of the diluted S. mutans culture (10^5 CFU) was deposited into each well of the microtiter plate. The plate was then incubated at 37° C. for 24 hours in a sealed humidified chamber. The plate was then visually inspected to determine the lowest concentration of compound at which no bacterial growth was visible. This value was considered to be the minimum inhibitory concentration (MIC) for the compound. The test was repeated using Staphylococcus aureus (strain ATCC 6538) and Pseudomonas aeruginosa (strain ATCC 9027) in place of S. mutans.
(§2) A sample of each of N-dodecanoyl-D-glucosamine, N-tetradecanoyl-D-glucosamine, and N-hexadecanoyl-D-glucosamine (0.100 g each) was emulsified in water (10 g) using a nonionic surfactant (0.9 g; PLURONIC F68, available from BASF Corp., Mount Olive, N.J.). A control sample was made by combining the nonionic surfactant (0.9 g) and water (10 g). Each of the four samples was evaluated using the Minimum Inhibitory Concentration (MIC) Test described above with S. mutans, S. aureus, and P. aeruginosa. In Table 5, “F68” refers to the nonionic surfactant used in the Comparative Examples, and “none” means that no inhibitory activity was noted.

[5] = test system: Pseudomonas aeruginosa (strain ATCC 9027); assay: Minimum Inhibitory Concentration (MIC) Test; settings: P. aeruginosa; compound emulsified in water with PLURONIC F68; 24 hours at 37° C.; none = no inhibitory activity noted
Description: as §1, §2

[6] = test system: Staphylococcus aureus (strain ATCC 6538); assay: Minimum Inhibitory Concentration (MIC) Test; settings: S. aureus; compound emulsified in water with PLURONIC F68; 24 hours at 37° C.; none = no inhibitory activity noted
Description: as §1, §2

| Structure (SMILES) | MIC [4] [µg/mL] | MIC [5] | MIC [6] | Visual Assessment [1] | activity at 1 % w/w [2] [%] | Bacteria Count Reduction (log reduction) (Streptococcus mutans; 0.1 wt % compound, 2 min.) | Bacteria Count Reduction (log reduction) (Streptococcus mutans; 0.1 wt % compound, 5 min.) | Bacteria Count Reduction (log reduction) (Streptococcus mutans; 0.1 wt % compound, 10 min.) | Bacteria Count Reduction (log reduction) (Streptococcus mutans; 0.5 wt % compound, 2 min.) | Bacteria Count Reduction (log reduction) (Streptococcus mutans; 0.5 wt % compound, 5 min.) | Bacteria Count Reduction (log reduction) (Streptococcus mutans; 0.5 wt % compound, 10 min.) | Bacteria Count Reduction (log reduction) (Streptococcus mutans; 1.0 wt % compound, 2 min.) | Bacteria Count Reduction (log reduction) (Streptococcus mutans; 1.0 wt % compound, 5 min.) | Bacteria Count Reduction (log reduction) (Streptococcus mutans; 1.0 wt % compound, 10 min.) | Concentration of Compound to Inhibit Biofilm Formation ([3]; 1 wt% Sucrose) [mM] | Concentration of Compound to Inhibit Biofilm Formation ([3]; 2.5 wt% Sucrose) [mM] | Concentration of Compound to Inhibit Biofilm Formation ([3]; 5 wt% Sucrose) [mM] |
| --- | --- | --- | --- | --- | --- | --- | --- | --- | --- | --- | --- | --- | --- | --- | --- | --- | --- |
| N[C@H]1C(O)O[C@H](COP(=O)(O)O)[C@@H](O)[C@@H]1O (stereo partly drawn) [Glucosamine-6-Phosphate, D-glucosamine-6-phosphate] | – | – | – | + | 2 | 0.99 | 0.88 | 1.06 | 0.95 | 1.11 | 1.23 | 1.12 | 1.41 | 2.09 | 50 | – | – |
| N[C@@H]1C(O)O[C@H](CO)[C@@H](O)[C@@H]1O (stereo partly drawn) [Mannosamine HCl, D-mannosamine] | – | – | – | + | 0 | 1.01 | 0.82 | 0.95 | 0.96 | 0.98 | 1.00 | 0.96 | 1.09 | 0.99 | 50 | 50 | 50 |

The next lines start with results.

| MIC [4] [µg/mL] | MIC [5] | MIC [6] | Structure (SMILES) | Visual Assessment [1] | activity at 1 % w/w [2] [%] | Bacteria Count Reduction (log reduction) (Streptococcus mutans; 0.1 wt % compound, 2 min.) | Bacteria Count Reduction (log reduction) (Streptococcus mutans; 0.1 wt % compound, 5 min.) | Bacteria Count Reduction (log reduction) (Streptococcus mutans; 0.1 wt % compound, 10 min.) | Bacteria Count Reduction (log reduction) (Streptococcus mutans; 0.5 wt % compound, 2 min.) | Bacteria Count Reduction (log reduction) (Streptococcus mutans; 0.5 wt % compound, 5 min.) | Bacteria Count Reduction (log reduction) (Streptococcus mutans; 0.5 wt % compound, 10 min.) | Bacteria Count Reduction (log reduction) (Streptococcus mutans; 1.0 wt % compound, 2 min.) | Bacteria Count Reduction (log reduction) (Streptococcus mutans; 1.0 wt % compound, 5 min.) | Bacteria Count Reduction (log reduction) (Streptococcus mutans; 1.0 wt % compound, 10 min.) | Concentration of Compound to Inhibit Biofilm Formation ([3]; 1 wt% Sucrose) [mM] | Concentration of Compound to Inhibit Biofilm Formation ([3]; 2.5 wt% Sucrose) [mM] | Concentration of Compound to Inhibit Biofilm Formation ([3]; 5 wt% Sucrose) [mM] |
| --- | --- | --- | --- | --- | --- | --- | --- | --- | --- | --- | --- | --- | --- | --- | --- | --- | --- |
| 78 (≈ 216 µM) | None | None | CCCCCCCCCCCC(=O)N[C@H]1C(O)O[C@H](CO)[C@@H](O)[C@@H]1O (stereo partly drawn) [N-dodecanoyl-D-glucosamine] | – | – | – | – | – | – | – | – | – | – | – | – | – | – |
| 39 (≈ 93.4 µM) | None | None | CCCCCCCCCCCCCCCC(=O)N[C@H]1C(O)O[C@H](CO)[C@@H](O)[C@@H]1O (stereo partly drawn) [N-hexadecanoyl-D-glucosamine] | – | – | – | – | – | – | – | – | – | – | – | – | – | – |
| 78 (≈ 200 µM) | None | None | CCCCCCCCCCCCCC(=O)N[C@H]1C(O)O[C@H](CO)[C@@H](O)[C@@H]1O (stereo partly drawn) [N-tetradecanoyl-D-glucosamine] | – | – | – | – | – | – | – | – | – | – | – | – | – | – |
